Measurements as given in US20210041447A1, “AZACARBOLINE COMPOUNDS FOR THE DETECTION OF TAU AGGREGATES” (AC IMMUNE SA, priority 2018, published 2021).
Like-named read-outs stand apart in the source and are kept apart here.

Columns and labels:
[1] = biological target: Tau (Homo sapiens, UniProt P10636); experiment: Tau binding in AD brain homogenate, competition with 18F-labeled Tau binder; design: High affinity to Tau: key: −: poor; ∘: moderate; +: good; ++: very good; +++: excellent; conditions: for High affinity to Tau: AD brain homogenate, non-radioactive fluorine-19 derivatives; for IC50: human AD brain homogenate, fluorine-19 derivatives
Sequence of Tau (P10636 623-708 limits assumed): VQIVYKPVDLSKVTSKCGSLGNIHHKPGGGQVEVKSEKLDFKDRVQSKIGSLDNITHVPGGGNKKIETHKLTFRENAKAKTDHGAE
Method: (§1) 20 μg of human Alzheimer disease brain homogenate was incubated with a dilution series of each test compound (1000 to 0.06 nM) in the presence of 800 Bq of ^18F-labeled Tau binder. The samples were shaken at 110 rpm for 45 min at 37° C. Samples were then filtered through GF/B 96 well filter plates and washed twice with 300 μL assay buffer (PBS containing 0.1% BSA and 2% DMSO). Thereafter, filter plates were sealed and a Fuji Film Imaging Plate (BAS-SR2025) was placed on top. The imaging plate was analyzed after overnight exposition using a Fuji Film BAS-5000. Non-specific signal was determined with samples containing ^18F-labeled Tau-reference binder in the presence of assay buffer without brain substrate and competitor. Specific binding was calculated by subtracting the non-specific signal from the measured samples signal. The unblocked ^18F-labeled Tau-binder signal was defined as total binding. IC50 values were calculated by Prism V6 (GraphPad) setting total binding to 100%.

[2] = biological target: amyloid-beta (Homo sapiens, UniProt P05067); experiment: Binding affinity to amyloid-beta in AD brain homogenate, competition with 18F-labeled beta-amyloid binder; design: Low affinity to amyloid-beta: key: −: poor; ∘: moderate; +: good; ++: very good; +++: excellent
Sequence of amyloid-beta (P05067 672-711 limits assumed): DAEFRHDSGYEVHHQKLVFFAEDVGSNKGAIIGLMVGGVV
Method: as §1, with “beta-amyloid” for “Tau”, “96-well” for “96 well”, “beta-amyloid” for “Tau-reference”, “beta-amyloid binder” for “Tau-binder”

[3] = biological target: T1, MAO A (Homo sapiens, UniProt P21397); experiment: Binding affinity to MAO A in human HC brain homogenate, [18F]fluoroethyl harmine competition; conditions: human healthy control brain homogenate; for IC50: 18F-FEH competition; as to Low affinity to MAO A (HC homogenate): key: −: poor; ∘: moderate; +: good; ++: very good; +++: excellent
T1 construct: from tissue; host or cells: human healthy control brain homogenate
T1 sequence (P21397 1-527): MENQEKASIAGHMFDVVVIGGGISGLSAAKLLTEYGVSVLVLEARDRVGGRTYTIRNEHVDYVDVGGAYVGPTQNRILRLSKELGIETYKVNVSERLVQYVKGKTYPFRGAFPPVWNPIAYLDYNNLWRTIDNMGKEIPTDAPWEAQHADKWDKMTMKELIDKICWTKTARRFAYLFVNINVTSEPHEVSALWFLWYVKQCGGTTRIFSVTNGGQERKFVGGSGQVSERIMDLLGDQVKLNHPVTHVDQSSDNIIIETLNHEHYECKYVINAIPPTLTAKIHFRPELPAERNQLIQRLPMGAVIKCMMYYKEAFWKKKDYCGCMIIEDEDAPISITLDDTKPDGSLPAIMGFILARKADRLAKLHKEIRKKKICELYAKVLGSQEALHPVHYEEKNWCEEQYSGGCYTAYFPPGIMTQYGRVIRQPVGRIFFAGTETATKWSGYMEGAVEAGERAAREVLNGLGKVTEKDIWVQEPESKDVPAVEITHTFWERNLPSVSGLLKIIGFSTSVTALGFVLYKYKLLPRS
Method: as §1, with “of” for “of human Alzheimer disease”, “homogenate (without AD pathology)” for “homogenate”, “18F-labeled MAO-A binder ([^18F]fluoroethyl harmine, FEH).” for “^18F-labeled Tau binder.”, “96-well” for “96 well”, “FEH” for “Tau-reference binder”, “FEH” for “Tau-binder”

[4] = biological target: T2, MAO A (Mus musculus, UniProt Q64133); experiment: Binding affinity to MAO A in mouse brain homogenate, [18F]fluoroethyl harmine competition; conditions: for IC50: 18F-FEH competition; as to Low affinity to MAO A (mouse homogenate): key: −: poor; ∘: moderate; +: good; ++: very good; +++: excellent
T2 construct: from tissue; host or cells: mouse brain homogenate
T2 sequence (Q64133 1-526): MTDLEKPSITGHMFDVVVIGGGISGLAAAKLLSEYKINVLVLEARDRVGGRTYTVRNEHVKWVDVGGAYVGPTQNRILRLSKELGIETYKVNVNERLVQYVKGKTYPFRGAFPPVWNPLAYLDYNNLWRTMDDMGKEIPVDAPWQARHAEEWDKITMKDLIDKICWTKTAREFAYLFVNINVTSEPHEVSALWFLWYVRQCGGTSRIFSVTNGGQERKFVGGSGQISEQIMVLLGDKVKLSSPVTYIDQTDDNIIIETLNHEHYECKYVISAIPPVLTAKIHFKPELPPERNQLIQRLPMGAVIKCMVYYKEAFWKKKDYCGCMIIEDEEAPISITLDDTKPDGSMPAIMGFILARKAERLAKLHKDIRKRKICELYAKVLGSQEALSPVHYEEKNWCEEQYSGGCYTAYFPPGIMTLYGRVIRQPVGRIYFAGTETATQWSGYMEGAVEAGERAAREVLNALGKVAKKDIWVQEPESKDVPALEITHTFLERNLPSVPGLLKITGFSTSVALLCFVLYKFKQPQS
Method: as §1, with “of” for “of human Alzheimer disease”, “homogenate (without AD pathology)” for “homogenate”, “18F-labeled MAO-A binder ([^18F]fluoroethyl harmine, FEH).” for “^18F-labeled Tau binder.”, “96-well” for “96 well”, “FEH” for “Tau-reference binder”, “FEH” for “Tau-binder”

[5] = biological target: T3, MAO B (Homo sapiens, UniProt P27338); experiment: Binding affinity to MAO B in HC brain homogenate, [18F]fluoro deprenyl competition; design: Low affinity to MAO B: key: −: poor; ∘: moderate; +: good; ++: very good; +++: excellent
T3 construct: from tissue; host or cells: human brain homogenate without AD pathology
T3 sequence (P27338 1-520): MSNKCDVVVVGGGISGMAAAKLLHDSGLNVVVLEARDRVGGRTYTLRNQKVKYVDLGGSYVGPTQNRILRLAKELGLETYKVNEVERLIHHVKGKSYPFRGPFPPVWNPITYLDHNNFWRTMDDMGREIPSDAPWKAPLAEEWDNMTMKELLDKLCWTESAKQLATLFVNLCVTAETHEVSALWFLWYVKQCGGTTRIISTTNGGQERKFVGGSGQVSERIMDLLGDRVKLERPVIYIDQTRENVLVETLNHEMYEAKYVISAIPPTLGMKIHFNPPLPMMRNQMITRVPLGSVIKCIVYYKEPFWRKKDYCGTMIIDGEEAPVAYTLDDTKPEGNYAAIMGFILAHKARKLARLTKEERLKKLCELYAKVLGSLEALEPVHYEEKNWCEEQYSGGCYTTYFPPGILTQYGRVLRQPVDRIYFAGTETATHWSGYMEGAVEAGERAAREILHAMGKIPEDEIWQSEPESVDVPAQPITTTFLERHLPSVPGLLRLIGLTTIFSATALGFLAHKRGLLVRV
Method: as §1, with “human” for “human Alzheimer disease”, “homogenate (without AD pathology)” for “homogenate”, “MAO-B binder ([^18F]fluoro deprenyl).” for “Tau binder.”, “96-well” for “96 well”, “fluoro deprenyl” for “Tau-reference binder”, “fluoro deprenyl” for “Tau-binder”

[6] = human AD brain homogenate; read-out: IC50 in AD brain homogenate (amyloid-beta)
[7] = human HC brain homogenate; 18F-fluoro deprenyl competition; read-out: IC50 in HC brain homogenate (MAO B)

| High affinity to Tau [1] | IC50 [1] [nM] | Low affinity to amyloid-beta ([2]; AD brain homogenate) | IC50 [2, 6] [nM] | Low affinity to MAO A (HC homogenate) [3] | IC50 [3] [nM] | Low affinity to MAO A (mouse homogenate) [4] | IC50 [4] [nM] | Low affinity to MAO B ([5]; HC brain homogenate) | IC50 [5, 7] [nM] | Structure (SMILES) | IC50 ([2]; read-out: IC50 in AD brain homogenate (amyloid-beta); human AD brain homogenate) [nM] | IC50 ([5]; read-out: IC50 in HC brain homogenate (MAO B); human HC brain homogenate; 18F-fluoro deprenyl competition) [nM] |
| --- | --- | --- | --- | --- | --- | --- | --- | --- | --- | --- | --- | --- |
| ++ | 17 | +++ | > 1000 | +++ | > 1000 | +++ | > 1000 | +++ | > 1000 | Fc1cc(-c2ccc3c(n2)[nH]c2ccncc23)c(F)cn1 [Example F-6] | – | – |
| ++ | 13 | +++ | > 1000 | ++ | 333 | ++ | 181 | +++ | > 1000 | N#Cc1ccc(-c2ccc3c(n2)[nH]c2ccncc23)cc1F [Example F-9] | – | – |
| +++ | 8.7 | – | – | – | – | ++ | 152 | – | – | N#Cc1cc(-c2ccc3c(n2)[nH]c2ccncc23)ccc1F [Example F-9a] | – | – |
| ++ | 9 | +++ | > 1000 | +++ | > 1000 | +++ | > 1000 | +++ | > 1000 | Fc1cnc(F)c(-c2ccc3c(n2)[nH]c2ccncc23)c1 [Example F-8] | – | – |
| ++ | 10 | +++ | > 1000 | +++ | 739 | +++ | 701 | ++ | 387 | Fc1ccc(-c2ccc3c(n2)[nH]c2ccncc23)c(F)n1 [Example F-7] | – | – |

Second part, the compound before the results:

| Structure (SMILES) | High affinity to Tau [1] | IC50 [1] [nM] | Low affinity to amyloid-beta ([2]; AD brain homogenate) | IC50 [2, 6] [nM] | Low affinity to MAO A (HC homogenate) [3] | IC50 [3] [nM] | Low affinity to MAO A (mouse homogenate) [4] | IC50 [4] [nM] | Low affinity to MAO B ([5]; HC brain homogenate) | IC50 [5, 7] [nM] | IC50 ([2]; read-out: IC50 in AD brain homogenate (amyloid-beta); human AD brain homogenate) [nM] | IC50 ([5]; read-out: IC50 in HC brain homogenate (MAO B); human HC brain homogenate; 18F-fluoro deprenyl competition) [nM] |
| --- | --- | --- | --- | --- | --- | --- | --- | --- | --- | --- | --- | --- |
| Fc1nccc(-c2ccc3c(n2)[nH]c2ccncc23)c1F [Example F-3] | +++ | 7 | +++ | > 1000 | +++ | > 1000 | +++ | 830 | +++ | 645 | – | – |
| Nc1cc(-c2ccc3c(n2)[nH]c2ccncc23)ccc1F [Example F-10] | +++ | – | +++ | – | + | 24 | + | 25 | +++ | – | 680 | > 1000 |
| Fc1cc(-c2ccc3c(n2)[nH]c2ccncc23)cc(F)n1 [Example F-5] | ++ | 29 | +++ | > 1000 | +++ | > 1000 | +++ | > 1000 | +++ | > 1000 | – | – |
| Fc1nccc(-c2ccc3c(n2)[nH]c2ccncc23)c1Cl [Example F-4] | ++ | 26 | +++ | > 1000 | +++ | > 1000 | +++ | > 1000 | +++ | > 1000 | – | – |
